Converted amounts (≈) assume the structure as drawn.
Tests used:
[1] = tested on: Mycobacterium tuberculosis; test: Inhibition of Mycobacterium tuberculosis AHAS catalytic subunit assessed as inhibition of acetoin formation using […] as substrate at 100 uM after 1 hr
[2] = tested on: Mycobacterium tuberculosis; test: Antitubercular activity against Mycobacterium tuberculosis H37Rv ATCC 27294 assessed as inhibition of bacterial growth after 4 weeks by two-fold dilution technique; assay type: functional; settings: H37Rv ATCC 27294, 672 h
[3] = Inhibition of Mycobacterium tuberculosis AHAS catalytic subunit assessed as inhibition of acetoin formation using […] as substrate after 1 hr
[4] = tested on: Mycobacterium tuberculosis; test: Antitubercular activity against isoniazid, rifampin, streptomycin, ethambutol, amikacin, ofloxacin, kanamycin-susceptible Mycobacterium tuberculosis infected in human THP-1 cells assessed as inhibition of intracellular activity at 20 mg/L after 4 days; assay type: functional; settings: THP-1, 96 h
[5] = tested on: Mycobacterium tuberculosis; test: Antitubercular activity against isoniazid, rifampin, streptomycin, ethambutol, amikacin, ofloxacin, kanamycin-susceptible Mycobacterium tuberculosis assessed as inhibition of bacterial growth after 4 weeks by two-fold dilution technique; assay type: functional; settings: 672 h
[6] = tested on: Mycobacterium tuberculosis; test: Antitubercular activity against Mycobacterium tuberculosis H37Rv ATCC 27294 infected in human THP-1 cells assessed as inhibition of intracellular activity at 10 mg/L after 4 days; assay type: functional; settings: H37Rv ATCC 27294, THP-1, 96 h
[7] = tested on: Mycobacterium tuberculosis; test: Antitubercular activity against Mycobacterium tuberculosis H37Rv ATCC 27294 infected in human THP-1 cells assessed as inhibition of intracellular activity at 20 mg/L after 4 days; assay type: functional; settings: H37Rv ATCC 27294, THP-1, 96 h
[8] = tested on: Mycobacterium tuberculosis; test: Antitubercular activity against isoniazid, rifampin, streptomycin, ethambutol, amikacin, ofloxacin, kanamycin-susceptible Mycobacterium tuberculosis infected in human THP-1 cells assessed as inhibition of intracellular activity at 10 mg/L after 4 days; assay type: functional; settings: THP-1, 96 h
THP-1 = test: Cytotoxicity against human THP1 cells at 20 mg/L by MTT assay; assay type: cell-based

## O=C(On1c(-c2cccc(F)c2)nc2ccccc2c1=O)c1cccc(C(F)(F)F)c1
[1]
  inhibition: 30%
[2]
  MIC: > 50 µg/mL
[3]
  IC50: > 100 µM

## COC(=O)c1ccccc1S(=O)(=O)NC(=O)Nc1nc(C)cc(C)n1 [SULFOMETURON METHYL]
[4]
  inhibition at 20 µg/mL: 32.3%
[5]
  MIC: 10 µg/mL (≈ 27.4 µM)
[2]
  MIC: 10 µg/mL (≈ 27.4 µM)
[6]
  inhibition at 10 µg/mL: 15.9%
[7]
  inhibition at 20 µg/mL: 32.5%
[8]
  inhibition at 10 µg/mL: 15.5%
[3]
  IC50: 4.79 µM

## Cc1cccc(-c2nc3ccccc3c(=O)n2OC(=O)c2ccc(Cl)cc2)c1
[1]
  inhibition: 0%
[2]
  MIC: > 50 µg/mL
[3]
  IC50: > 100 µM

## O=C(On1c(-c2ccccc2)nc2ccccc2c1=O)c1cccc([N+](=O)[O-])c1
[1]
  inhibition: 91.5%
[5]
  MIC: 5 µg/mL (≈ 12.9 µM)
[2]
  MIC: 5 µg/mL (≈ 12.9 µM)
[3]
  IC50: 9.68 µM

## Cc1cccc(-c2nc3ccccc3c(=O)n2OC(=O)c2cccc(C(F)(F)F)c2)c1
[1]
  inhibition: 9.5%
[2]
  MIC: > 50 µg/mL
[3]
  IC50: > 100 µM

## NNC(=O)c1ccncc1 [ISONIAZID]
[5]
  MIC: 0.2 µg/mL (≈ 1.46 µM)

## Cc1ccc(C(=O)On2c(-c3ccccc3)nc3ccccc3c2=O)cc1
[1]
  inhibition: 18%
[2]
  MIC: > 50 µg/mL
[3]
  IC50: > 100 µM

## O=C(On1c(-c2cccc(F)c2)nc2ccccc2c1=O)c1ccccc1
[1]
  inhibition: 26%
[2]
  MIC: 50 µg/mL (≈ 139 µM)
[3]
  IC50: > 100 µM

## O=C(On1c(-c2ccccc2)nc2ccccc2c1=O)c1cccc(F)c1
[1]
  inhibition: 26%
[2]
  MIC: > 50 µg/mL
[3]
  IC50: > 100 µM

## COc1cccc(C(=O)On2c(-c3ccccc3)nc3ccccc3c2=O)c1
[1]
  inhibition: 27%
[2]
  MIC: > 50 µg/mL
[3]
  IC50: > 100 µM

## COc1cccc(C(=O)On2c(-c3cccc(F)c3)nc3ccccc3c2=O)c1
[1]
  inhibition: 28%
[2]
  MIC: 50 µg/mL (≈ 128 µM)
[3]
  IC50: > 100 µM

## CO[C@H]1/C=C/O[C@@]2(C)Oc3c(C)c(O)c4c(O)c(c(/C=N/N5CCN(C)CC5)c(O)c4c3C2=O)NC(=O)/C(C)=C\C=C\[C@H](C)[C@H](O)[C@@H](C)[C@@H](O)[C@@H](C)[C@H](OC(C)=O)[C@@H]1C [RIFAMPIN]
[5]
  MIC: 0.4 µg/mL (≈ 0.486 µM)

## COc1cccc(-c2nc3ccccc3c(=O)n2OC(=O)c2cccc(Cl)c2)c1
[1]
  inhibition: 23.5%
[2]
  MIC: > 50 µg/mL
[3]
  IC50: > 100 µM

## O=C(On1c(-c2cccc(F)c2)nc2ccccc2c1=O)c1cccc(Cl)c1
[1]
  inhibition: 42.5%
[2]
  MIC: > 50 µg/mL
[3]
  IC50: > 100 µM

## Cc1cccc(-c2nc3ccccc3c(=O)n2OC(=O)c2cccc(F)c2)c1
[1]
  inhibition: 9.5%
[2]
  MIC: > 50 µg/mL
[3]
  IC50: > 100 µM

## Cc1cccc(-c2nc3ccccc3c(=O)n2OC(=O)c2ccccc2)c1
[1]
  inhibition: 40.5%
[2]
  MIC: > 50 µg/mL
[3]
  IC50: > 100 µM

## Cc1ccccc1-c1nc2ccccc2c(=O)n1OC(=O)c1cccc(F)c1
[1]
  inhibition: 30%
[2]
  MIC: > 50 µg/mL
[3]
  IC50: > 100 µM

## Cc1cccc(C(=O)On2c(-c3cccc(C)c3)nc3ccccc3c2=O)c1
[1]
  inhibition: 10.5%
[2]
  MIC: > 50 µg/mL
[3]
  IC50: > 100 µM

## O=C(On1c(-c2ccccc2)nc2ccccc2c1=O)c1cccc(Cl)c1
[1]
  inhibition: 80.5%
[5]
  MIC: 5 µg/mL (≈ 13.3 µM)
[2]
  MIC: 5 µg/mL (≈ 13.3 µM)
[3]
  IC50: 12.1 µM

## O=C(On1c(-c2ccccc2)nc2ccccc2c1=O)c1ccccc1
[1]
  inhibition: 20.5%
[2]
  MIC: > 50 µg/mL
[3]
  IC50: > 100 µM

## O=C(On1c(-c2cccc(F)c2)nc2ccccc2c1=O)c1cccc(F)c1
[1]
  inhibition: 72%
[4]
  inhibition at 20 µg/mL: 48.2%
THP-1
  Activity: Non-toxic
[5]
  MIC: 2.5 µg/mL (≈ 6.61 µM)
[2]
  MIC: 2.5 µg/mL (≈ 6.61 µM)
[6]
  inhibition at 10 µg/mL: 24.8%
[7]
  inhibition at 20 µg/mL: 49.5%
[8]
  inhibition at 10 µg/mL: 23.4%
[3]
  IC50: 6.5 µM

## Cc1cccc(C(=O)On2c(-c3ccccc3)nc3ccccc3c2=O)c1
[1]
  inhibition: 4%
[2]
  MIC: > 50 µg/mL
[3]
  IC50: > 100 µM

## COc1cccc(-c2nc3ccccc3c(=O)n2OC(=O)c2cccc([N+](=O)[O-])c2)c1
[1]
  inhibition: 94%
[5]
  MIC: 5 µg/mL (≈ 12 µM)
[2]
  MIC: 5 µg/mL (≈ 12 µM)
[3]
  IC50: 8.74 µM

## Cc1ccccc1C(=O)On1c(-c2ccccc2)nc2ccccc2c1=O
[1]
  inhibition: 16.5%
[2]
  MIC: > 50 µg/mL
[3]
  IC50: > 100 µM

## Cc1ccc(C(=O)On2c(-c3cccc(C)c3)nc3ccccc3c2=O)cc1
[1]
  inhibition: 33%
[2]
  MIC: > 50 µg/mL
[3]
  IC50: > 100 µM

## COc1cccc(-c2nc3ccccc3c(=O)n2OC(=O)c2cccc(C(F)(F)F)c2)c1
[1]
  inhibition: 73.2%
[5]
  MIC: 10 µg/mL (≈ 22.7 µM)
[2]
  MIC: 10 µg/mL (≈ 22.7 µM)
[3]
  IC50: 9.57 µM

## O=C(On1c(-c2ccccc2)nc2ccccc2c1=O)c1ccc(Cl)cc1
[1]
  inhibition: 7.5%
[2]
  MIC: > 50 µg/mL
[3]
  IC50: > 100 µM
